Data taken from publication PMC2073845, “Tracer Studies of Potential Radiosensitizing Agents” (British Journal of Cancer, 1956).
Read-outs that look alike come from different tables or passages of the source.

Key:
[1] = Radioactivity in blood, plasma and urine as percentage of injected dose, tumour-bearing rats
Text: OPO3Na2 OPO3Na2 OP03H2 ICOH3 CH3 CH3 131I I 82Br CH3 1311 OPO3Na2 OPO3Na2 OP03H2 I II III METHODS AND MATERIALS Counting.-y-emission from the halogens was the basis of detection. The simple technique of placing samples of the organs under a shielded counter could not be used since variations in the thickness of the organs would vary the sample- counter distance, leading to considerable counting errors. This type of error was reduced by locating the sample on a thin aluminium tray midway between two G-10-Pb glass-covered Geiger-Muller tubes in copper sheaths placed 10 cm. apart in a castle of 2 inch lead and connected in parallel to the same scaler. The 50 D. H. MARRIAN AND D. R. MAXWELL sensitivity of the arrangement was about 9000 c.p.m./,tC 52Br. Samples and backgrounds were counted to a standard error of 5 per cent or less. […] The hydroscopic salt (II) was dissolved in 0 9 per cent saline and the concentration determined by ultraviolet spectroscopy (absorption maxima at 232m,u. (M = 70,000) and 290 m,u. (M = 5,800) in 0-01N- hydrochloric acid). […] Exposure to chlorine vapour caused red spots of bromofluoroscein to appear on a yellow background. […] The iodinated compound (III), was dissolved in 0 9 per cent saline and neutralised by addition of sodium hydroxide solution. The purity of the solution was determined by paper electrophoresis at pH 7 (Markham and Smith, 1952). This clearly separated the organic compound from iodide ion, the former being detected by ultraviolet photography and the latter by spraying with starch solution and exposure to chlorine vapour. […] It was dissolved in 0 9 per cent saline before injection. […] C. for 4 hours at pH 4, 6, 7 and 9 and the reaction mixtures examined by paper electrophoresis. […] The radioactivity of these planchettes when the organs were being counted was used to calculate the differential absorption ratio (D.A.R.), (Marrian and Maxwell, 1956). In most experiments with the bromo-compound, the time required to count the organ necessitated a decay correction, calculated from the known half-life of 82Br-bromine (36 ? 0*2 hours). […]

chick fibroblasts = settings: cited from earlier work
[2] = Differential absorption ratio (D.A.R.) of organs of rats carrying a Walker carcinoma after injection of the radio-labelled compound
Text: (§1) OPO3Na2 OPO3Na2 OP03H2 ICOH3 CH3 CH3 131I I 82Br CH3 1311 OPO3Na2 OPO3Na2 OP03H2 I II III METHODS AND MATERIALS Counting.-y-emission from the halogens was the basis of detection. The simple technique of placing samples of the organs under a shielded counter could not be used since variations in the thickness of the organs would vary the sample- counter distance, leading to considerable counting errors. This type of error was reduced by locating the sample on a thin aluminium tray midway between two G-10-Pb glass-covered Geiger-Muller tubes in copper sheaths placed 10 cm. apart in a castle of 2 inch lead and connected in parallel to the same scaler. The 50 D. H. MARRIAN AND D. R. MAXWELL sensitivity of the arrangement was about 9000 c.p.m./,tC 52Br. Samples and backgrounds were counted to a standard error of 5 per cent or less. […] The hydroscopic salt (II) was dissolved in 0 9 per cent saline and the concentration determined by ultraviolet spectroscopy (absorption maxima at 232m,u. (M = 70,000) and 290 m,u. (M = 5,800) in 0-01N- hydrochloric acid). […] The purity of the solution was determined by paper electrophoresis at pH 7 (Markham and Smith, 1952). This clearly separated the organic compound from iodide ion, the former being detected by ultraviolet photography and the latter by spraying with starch solution and exposure to chlorine vapour. […]

[3] = for injected compound in urine: 5 mg i.v.
Text: OPO3Na2 OPO3Na2 OP03H2 ICOH3 CH3 CH3 131I I 82Br CH3 1311 OPO3Na2 OPO3Na2 OP03H2 I II III METHODS AND MATERIALS Counting.-y-emission from the halogens was the basis of detection. The simple technique of placing samples of the organs under a shielded counter could not be used since variations in the thickness of the organs would vary the sample- counter distance, leading to considerable counting errors. This type of error was reduced by locating the sample on a thin aluminium tray midway between two G-10-Pb glass-covered Geiger-Muller tubes in copper sheaths placed 10 cm. apart in a castle of 2 inch lead and connected in parallel to the same scaler. The 50 D. H. MARRIAN AND D. R. MAXWELL sensitivity of the arrangement was about 9000 c.p.m./,tC 52Br. Samples and backgrounds were counted to a standard error of 5 per cent or less. […] The hydroscopic salt (II) was dissolved in 0 9 per cent saline and the concentration determined by ultraviolet spectroscopy (absorption maxima at 232m,u. (M = 70,000) and 290 m,u. (M = 5,800) in 0-01N- hydrochloric acid). […] Exposure to chlorine vapour caused red spots of bromofluoroscein to appear on a yellow background. […] The iodinated compound (III), was dissolved in 0 9 per cent saline and neutralised by addition of sodium hydroxide solution. The purity of the solution was determined by paper electrophoresis at pH 7 (Markham and Smith, 1952). This clearly separated the organic compound from iodide ion, the former being detected by ultraviolet photography and the latter by spraying with starch solution and exposure to chlorine vapour. […] It was dissolved in 0 9 per cent saline before injection. […] C. for 4 hours at pH 4, 6, 7 and 9 and the reaction mixtures examined by paper electrophoresis. […] Animal experiments Rats carring a Walker carcinoma were used as previously described (Marrian and Maxwell, 1956). […] The radioactivity of these planchettes when the organs were being counted was used to calculate the differential absorption ratio (D.A.R.), (Marrian and Maxwell, 1956). In most experiments with the bromo-compound, the time required to count the organ necessitated a decay correction, calculated from the known half-life of 82Br-bromine (36 ? 0*2 hours). […] Upper curve: single counter. Lower curve: double counter. Ordinate: Percentage error in the count.

[4] = design: method as in Mitchell, 1955; Marrian and Maxwell, 1956; settings: after intravenous injection; ref Mitchell, 1955; Marrian and Maxwell, 1956; cited from earlier work
[5] = Attempted exchange reactions with ammonium 82Br-bromide in vitro; format: physicochemical; settings: reactants in molar ratio; lower detection limit 2.0 per cent
Text: as §1

Structure (SMILES): Cc1c([82Br])c(OP(=O)([O-])[O-])c2ccccc2c1OP(=O)([O-])[O-].[Na+].[Na+].[Na+].[Na+] [II, tetrasodium 2-methyl-3-82Br-bromo-I: 4-naphthohydroquinone diphosphate]
- plasma share of the radioactivity of the whole blood ([1]; 1 mg i.v.): ~67 per cent
- radioactivity associated with the blood ([1]; after 30 minutes, 1 mg i.v.): about 15 per cent of the injected dose
- radioactivity excreted in the urine ([1]; of a 1 mg (10.6 uC) dose, during 48 hours): 30-35 per cent
- antimitotic properties (chick fibroblasts; ref Friedmann, Marrian and Simon-Reuss, 1952): established
- D.A.R. of the tumour compared with other organs ([2]; 1 mg i.v., only exceeded by stomach and contents): consistently higher than any of the above organs
- form of radioactivity in stomach contents (paper electrophoresis) ([3]; 6 hours after injection of 10 mg): present as bromide ion
- form of radioactivity in urine (paper chromatography) ([3]; rat given 5 mg intravenously): most of the radioactivity was present as bromide ion
- injected compound in urine ([3]; urine collected from 0 to 2 hours): small amounts
- injected compound in urine ([3]; urine collected from 2 to 6 hours after injection): None of the injected compound could be detected

Structure (SMILES): Cc1c(C)c(OP(=O)(O)O)c([131I])c([131I])c1OP(=O)(O)O [III, 2: 3-dimethyl-5: 6-di-1311-iodo-I: 4-benzohydroquinone diphosphate]
- antimitotic properties (chick fibroblasts; same test, ref Simon-Reuss, unpublished): inactive
- radioactivity of the thyroid ([2]; 10 mg): no more radioactivity than the surrounding tissue
- form of the label half an hour after injection ([3]; 10 mg, by comparison with reported iodide distribution): much of the label derived from compound (III) is present as free iodide ion
- iodide ion in stomach contents and urine (paper electrophoresis) ([3]; 10 mg, first 3 hours): contain large amounts of iodide ion

Structure (SMILES): Cc1cc(OP(=O)(O)O)c2ccccc2c1OP(=O)(O)O [Synkavit, tetrasodium 2-methyl-I: 4-naphthohydro-quinone diphosphate]
- accumulation in tumour tissue [4]: can accumulate in tumour tissue for short periods

Structure (SMILES): Cc1c(Br)c(OP(=O)([O-])[O-])c2ccccc2c1OP(=O)([O-])[O-].[Na+].[Na+].[Na+].[Na+] [Tetrasodium 2-methyl-3-bromo-1 4-naphthohydroquinone diphosphate]
- exchange with ammonium 82Br-bromide [5]: no exchange could be detected
